How the values were obtained:
[1] = Plasma Stability (% remaining @2 hour); type: in vitro ADME; details: Human; 2 μM
CYP450 2C8 = target: T1, CYP450 2C8 (Homo sapiens, UniProt P10632); test: CYP450 Panel; type: in vitro ADME; details: 10 μM; substrate amodiaquine
T1 sequence (P10632 1-490): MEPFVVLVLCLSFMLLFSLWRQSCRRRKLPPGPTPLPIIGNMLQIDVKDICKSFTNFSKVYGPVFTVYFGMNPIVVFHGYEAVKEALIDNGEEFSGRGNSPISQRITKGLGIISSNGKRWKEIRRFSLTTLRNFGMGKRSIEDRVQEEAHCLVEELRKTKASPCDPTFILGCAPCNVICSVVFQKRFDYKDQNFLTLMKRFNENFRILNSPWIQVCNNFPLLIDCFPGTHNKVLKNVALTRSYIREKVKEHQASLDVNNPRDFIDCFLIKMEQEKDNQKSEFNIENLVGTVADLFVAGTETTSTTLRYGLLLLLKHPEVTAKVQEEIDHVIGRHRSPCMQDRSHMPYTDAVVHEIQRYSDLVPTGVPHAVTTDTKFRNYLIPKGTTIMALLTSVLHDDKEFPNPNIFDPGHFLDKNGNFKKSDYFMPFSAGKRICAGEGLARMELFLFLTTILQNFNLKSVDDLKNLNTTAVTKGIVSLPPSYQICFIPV

Colon-26 KRAS-G12D tumor = test: Colon-26 Model (KRAS G12D CRC): Efficacy & Safety; type: in vivo; details: Colon-26 KRAS-G12D in Balb/c
Protocol: Female athymic BALB/c nude or BALB/c mice (Beijing Vital River Laboratory Animal Technology Co., Ltd.), approximately 8-10 weeks old were used in these studies. Animals were maintained in individually vented cages on a 12-h light-dark cycle. Food and water were available ad libitum. The Colon-26 tumor cells were maintained in vitro with RPMI1640 medium supplemented with 10% fetal bovine serum at 37° C. in an atmosphere of 5% CO2 in air. The cells in exponential growth phase were harvested and quantitated by cell counter before tumor inoculation. […] Randomization was started when the mean tumor size reached approximately 125 mm^3. A total of 84 tumor-bearing mice were enrolled in the study and allocated into 7 treatment groups (12 mice per group). Also 12 non-tumor-bearing mice were assigned as un-treated group.
Animals were treated with either vehicle (10% DMSO/90% [20% SBE-β-CD in saline], pH 5) or vehicle containing compounds at the indicated doses by gavage (p.o.) twice daily for approximately 28-42 days (BID×28-42 p.o.), or to ethical endpoints (BWL>20%; Median Tumor Volume (MTV)>2000 mm^3; Individual TV>3000 mm^3; clinical signs of unwell). Clinical signs of unwell was characterized, but not limited to the following. Severe dehydration, hypothermia, abnormal/labored respiration, lethargy, obvious pain, diarrhea, skin lesions, neurological symptoms, impaired mobility (not able to eat or drink) due to significant ascites and enlarged abdomen, astasia, continuous prone or lateral position, signs of muscular atrophy, paralytic gait, clonic convulsions, tonic convulsions, persistent bleeding from body orifice. Dosing as well as tumor and body weight measurements were conducted in a Laminar Flow Cabinet.
Animals were checked daily for morbidity and mortality. During routine monitoring, the animals were checked for any effects of tumor growth and treatments on behavior such as mobility, food and water consumption, body weight gain/loss (body weights were measured twice per week after randomization), eye/hair matting and any other abnormalities. Mortality and observed clinical signs were recorded for individual animals in detail.
Tumor volumes were measured twice per week after randomization in two dimensions using a caliper, and the volume was expressed in mm3 using the formula: V=(L×W×W)/2, where V is tumor volume, L is tumor length (the longest tumor dimension) and W is tumor width (the longest tumor dimension perpendicular to L). Results were presented as the median tumor volume, expressed in mm^3+/−interquartile range, of each group. Tumor Growth Inhibition; TGI %=[1−(Ti/(Ci)]×100; where Ti as the median tumor volume of the treatment group on the measurement day, Ci as the median tumor volume of control group at the measurement day.
The body weights and tumor volumes were measured by using StudyDirector™ software (version 3.1.399.19).
The protocol and any amendment(s) or procedures involving the care and use of animals in this study were reviewed and approved by the Institutional Animal Care and Use Committee (IACUC) of CrownBio prior to execution. During the study, the care and use of animals were conducted in accordance with the regulations of the Association for Assessment and Accreditation of Laboratory Animal Care (AAALAC).

[2] = Microsome Stability (% remaining @1 hour); details: CD-1 Mouse; 2 μM
CYP450 3A4 = CYP450 3A4 (Homo sapiens, UniProt P08684); test: CYP450 Panel; type: in vitro ADME; details: 10 μM; for CYP450 Panel 3A4 (midazolam): substrate midazolam; for CYP450 Panel 3A4 (testosterone): substrate testosterone
hERG Channel = hERG Channel (Homo sapiens, UniProt Q12809); test: biochemical
pERK in A549 (KRAS-G12S) = test: Cell-based pERK dose response / phospho-ERK screen in A549; parameters: species or system Human; details: for pERK: total ERK (% relative to vehicle): A549 (KRAS G12S), 10 μM for 2 hours
Protocol: Materials and Methods: A549 or A375 cells were seeded in 6-well plates at an appropriate seeding density on day 0. On day 2 or 3, after checking the health and confluency of cells, the media was aspirated and replaced with 1 mL media containing a predetermined concentration of compound and incubated for 2 hours. After 2 hours, the media was aspirated, and the cells washed 2 times with cold PBS. Cells were lysed on ice, with 50 μL 1× CST lysis buffer+1 mM PMSF for 5 minutes. After 5 minutes, cells were removed using a scraper and transferred to cold 1.5 mL tubes, and centrifuged for 10 min, 4° C., 14,000×g. Supernatant was gently removed and snap frozen in liquid nitrogen. Protein concentration of the lysate was determined using Bradford Reagent (analyzed using SpectraMax M2E) and diluted to 1 mg/mL or pERK or 1.5 mg/mL for pMEK analysis. […] All dilutions were in Milk-free antibody diluent.

[3] = Plasma Stability (% remaining @2 hour); type: in vitro ADME; details: Beagle Dog; 2 μM
Caco-2 = Caco-2 permeability; details: 10 μM, 2 hrs
CYP450 2D6 = CYP450 2D6 (Homo sapiens, UniProt P10635); test: CYP450 Panel; details: 10 μM; substrate dextromethorphan; in % (unit assumed)
CYP450 2D6, sequence (P10635 whole entry): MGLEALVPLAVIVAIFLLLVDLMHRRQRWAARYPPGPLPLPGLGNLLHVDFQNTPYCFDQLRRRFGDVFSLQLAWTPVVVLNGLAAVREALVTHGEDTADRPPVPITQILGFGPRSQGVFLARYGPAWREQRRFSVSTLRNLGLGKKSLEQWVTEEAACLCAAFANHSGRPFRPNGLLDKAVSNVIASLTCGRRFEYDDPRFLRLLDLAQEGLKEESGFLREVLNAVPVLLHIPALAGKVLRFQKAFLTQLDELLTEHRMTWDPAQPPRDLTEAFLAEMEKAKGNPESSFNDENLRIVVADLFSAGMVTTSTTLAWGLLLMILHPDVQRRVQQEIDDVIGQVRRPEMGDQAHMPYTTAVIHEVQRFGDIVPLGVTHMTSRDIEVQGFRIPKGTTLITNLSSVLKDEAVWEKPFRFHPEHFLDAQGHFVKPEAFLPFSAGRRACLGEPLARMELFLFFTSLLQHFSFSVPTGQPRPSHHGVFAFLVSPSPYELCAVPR

CYP450 3A4, sequence (P08684 whole entry): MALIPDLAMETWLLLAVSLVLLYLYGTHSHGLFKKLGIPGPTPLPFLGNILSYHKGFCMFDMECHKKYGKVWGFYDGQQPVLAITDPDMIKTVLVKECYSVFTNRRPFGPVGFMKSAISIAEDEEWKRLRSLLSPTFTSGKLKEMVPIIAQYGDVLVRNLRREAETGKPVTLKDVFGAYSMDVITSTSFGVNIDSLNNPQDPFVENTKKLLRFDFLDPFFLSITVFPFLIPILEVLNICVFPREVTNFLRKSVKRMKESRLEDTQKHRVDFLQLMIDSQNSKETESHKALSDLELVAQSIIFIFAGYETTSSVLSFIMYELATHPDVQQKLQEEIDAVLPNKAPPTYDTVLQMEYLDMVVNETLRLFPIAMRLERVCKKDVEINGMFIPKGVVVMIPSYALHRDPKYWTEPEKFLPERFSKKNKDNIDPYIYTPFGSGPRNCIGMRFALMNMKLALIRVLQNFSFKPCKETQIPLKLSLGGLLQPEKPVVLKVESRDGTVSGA
hERG Channel, sequence (Q12809 whole entry): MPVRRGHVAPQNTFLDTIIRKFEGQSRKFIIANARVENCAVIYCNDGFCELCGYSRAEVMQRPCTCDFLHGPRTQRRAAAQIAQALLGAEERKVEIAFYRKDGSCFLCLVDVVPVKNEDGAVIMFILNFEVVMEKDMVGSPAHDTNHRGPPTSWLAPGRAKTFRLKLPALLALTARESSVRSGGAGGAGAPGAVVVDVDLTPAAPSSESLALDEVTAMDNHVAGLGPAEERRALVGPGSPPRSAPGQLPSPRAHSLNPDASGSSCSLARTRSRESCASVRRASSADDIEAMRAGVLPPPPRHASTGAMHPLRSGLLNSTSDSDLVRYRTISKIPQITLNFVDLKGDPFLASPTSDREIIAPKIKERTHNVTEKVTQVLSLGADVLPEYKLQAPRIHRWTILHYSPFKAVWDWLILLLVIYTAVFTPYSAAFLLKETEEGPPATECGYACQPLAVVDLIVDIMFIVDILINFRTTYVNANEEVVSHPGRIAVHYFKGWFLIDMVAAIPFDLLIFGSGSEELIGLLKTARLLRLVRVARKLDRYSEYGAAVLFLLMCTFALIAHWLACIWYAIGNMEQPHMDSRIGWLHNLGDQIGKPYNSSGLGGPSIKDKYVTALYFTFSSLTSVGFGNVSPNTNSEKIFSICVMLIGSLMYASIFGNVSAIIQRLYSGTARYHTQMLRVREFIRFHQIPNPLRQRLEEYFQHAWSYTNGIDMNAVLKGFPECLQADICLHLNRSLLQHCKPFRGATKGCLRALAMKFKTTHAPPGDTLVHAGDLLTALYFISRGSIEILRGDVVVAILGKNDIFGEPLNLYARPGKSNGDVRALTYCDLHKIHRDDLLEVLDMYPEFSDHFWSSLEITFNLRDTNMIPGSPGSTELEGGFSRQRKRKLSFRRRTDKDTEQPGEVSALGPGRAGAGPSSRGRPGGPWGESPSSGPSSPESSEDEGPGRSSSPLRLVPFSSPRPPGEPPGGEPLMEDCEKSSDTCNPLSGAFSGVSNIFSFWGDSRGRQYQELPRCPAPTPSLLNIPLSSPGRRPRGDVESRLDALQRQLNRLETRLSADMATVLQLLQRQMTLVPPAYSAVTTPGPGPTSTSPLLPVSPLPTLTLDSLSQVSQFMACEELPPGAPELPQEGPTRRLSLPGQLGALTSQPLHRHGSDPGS

| Compound | Plasma stability, % Remaining @2 hour [1] | CYP450 Panel 2C8 (CYP450 2C8) | BWL (Day 14) (Colon-26 KRAS-G12D tumor; 50 mg/kg BID po) | BWL (Day 17) (Colon-26 KRAS-G12D tumor; 50 mg/kg BID po) | Microsome stability, % Remaining @1 hour [2] | CYP450 Panel 3A4 (midazolam) (CYP450 3A4) | CYP450 Panel 3A4 (testosterone) (CYP450 3A4) | IC50 (hERG Channel) | pERK: total ERK (% relative to vehicle) (pERK in A549 (KRAS-G12S); Table 8A) | pERK: total ERK (% relative to vehicle) (pERK in A549 (KRAS-G12S); Table 8B) | Plasma stability, % Remaining @2 hour [3] | A − B Permeability Ranking (Caco-2) | CYP450 Panel 2D6 (CYP450 2D6) | BWL (Day 14) (Colon-26 KRAS-G12D tumor; 150 mg/kg BID po) | BWL (Day 17) (Colon-26 KRAS-G12D tumor; 150 mg/kg BID po) | TGI (Day 10) (Colon-26 KRAS-G12D tumor; 150 mg/kg BID po) | IC50 (pERK in A549 (KRAS-G12S); Homo sapiens, A549, 2 hr incubation, read-out: pERK IC50 (A549) [12-point dose]) | Mean Papp A − B (Caco-2) | Mean Papp B − A (Caco-2) |
| --- | --- | --- | --- | --- | --- | --- | --- | --- | --- | --- | --- | --- | --- | --- | --- | --- | --- | --- | --- |
| Cn1cnc2c(F)c(Nc3ccc(Br)cc3Cl)c(C(=O)NOCCO)cc21 [Reference 1, Selumetinib] | 98.1% | 18.9% | 0% | −2% | 13.9% | 25.9% | 21.4% | > 30 µM | 0.48% | 2.40% | 100.4% | High | 5.0 | – | – | – | – | – | – |
| CNS(=O)(=O)Nc1cccc(Cc2c(CN(C)C)c3ccc(OC(=O)N(C)C)cc3oc2=O)c1F [Compound A, 4-((dimethylamino)methyl)-3-(2-fluoro-3-((N-methylsulfamoyl)amino)benzyl)-2-oxo-2H-chromen-7-yl dimethylcarbamate] | 95.1% | 4% | – | – | 54.3% | 16.3% | 26.8% | 26.2 µM | – | – | 96.8% | High | −3.7 | 0% | 0% | 93.9% | 0.0198 µM | 13.0 10^−6 cm/s | 21.0 10^−6 cm/s |
